Measurements published in PMC6838199 (Scientific Reports, 2019).

How the values were obtained:
Assay in all cases: E1-E2 transthioesterification assay (UbcH5a, Coomassie gel), recombinant purified E1
Format in all cases: biochemical
TbUBA1b [1] = biological target: T1, TbUBA1b (Trypanosoma brucei, UniProt Q38DE8)
T1 construct: gene Tb09.211.3610; GST fusion cleaved with thrombin
T1 sequence (Q38DE8 1-1214): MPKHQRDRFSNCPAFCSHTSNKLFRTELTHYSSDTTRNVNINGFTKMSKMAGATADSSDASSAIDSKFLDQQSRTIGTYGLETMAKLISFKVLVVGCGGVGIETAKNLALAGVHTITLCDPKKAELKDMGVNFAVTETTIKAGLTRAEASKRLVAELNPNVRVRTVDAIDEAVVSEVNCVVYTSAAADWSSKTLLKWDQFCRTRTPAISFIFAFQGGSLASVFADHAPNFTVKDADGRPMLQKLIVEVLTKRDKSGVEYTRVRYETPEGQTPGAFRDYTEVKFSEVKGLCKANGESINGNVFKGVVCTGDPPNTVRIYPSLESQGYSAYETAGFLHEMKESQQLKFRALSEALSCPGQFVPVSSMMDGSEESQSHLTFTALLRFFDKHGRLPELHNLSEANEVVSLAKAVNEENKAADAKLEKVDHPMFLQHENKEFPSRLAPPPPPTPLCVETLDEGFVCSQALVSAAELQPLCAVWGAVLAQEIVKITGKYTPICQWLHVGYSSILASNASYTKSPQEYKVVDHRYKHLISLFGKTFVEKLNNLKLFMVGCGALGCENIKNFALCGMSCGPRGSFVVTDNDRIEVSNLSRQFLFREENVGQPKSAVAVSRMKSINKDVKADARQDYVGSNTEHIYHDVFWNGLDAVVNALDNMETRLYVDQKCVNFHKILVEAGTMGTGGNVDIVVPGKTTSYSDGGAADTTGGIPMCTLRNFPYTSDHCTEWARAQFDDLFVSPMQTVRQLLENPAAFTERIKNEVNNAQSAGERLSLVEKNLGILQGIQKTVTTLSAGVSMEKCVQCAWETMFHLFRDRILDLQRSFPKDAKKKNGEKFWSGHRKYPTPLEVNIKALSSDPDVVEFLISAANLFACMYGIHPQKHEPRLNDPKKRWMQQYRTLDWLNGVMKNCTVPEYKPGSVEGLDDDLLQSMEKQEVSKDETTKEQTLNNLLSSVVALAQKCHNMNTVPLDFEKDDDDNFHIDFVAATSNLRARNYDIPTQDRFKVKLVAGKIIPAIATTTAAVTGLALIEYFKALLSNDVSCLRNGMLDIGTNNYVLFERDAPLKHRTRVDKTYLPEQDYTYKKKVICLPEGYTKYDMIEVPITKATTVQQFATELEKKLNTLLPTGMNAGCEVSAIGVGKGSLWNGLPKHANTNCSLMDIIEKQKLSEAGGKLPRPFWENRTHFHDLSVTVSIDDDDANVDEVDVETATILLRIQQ

TbUBA1a [2] = biological target: T2, TbUBA1a (Trypanosoma brucei, UniProt Q57XC5)
T2 construct: gene Tb08.26A17.680; GST fusion cleaved with HRV 3C
T2 sequence (Q57XC5 1-1055): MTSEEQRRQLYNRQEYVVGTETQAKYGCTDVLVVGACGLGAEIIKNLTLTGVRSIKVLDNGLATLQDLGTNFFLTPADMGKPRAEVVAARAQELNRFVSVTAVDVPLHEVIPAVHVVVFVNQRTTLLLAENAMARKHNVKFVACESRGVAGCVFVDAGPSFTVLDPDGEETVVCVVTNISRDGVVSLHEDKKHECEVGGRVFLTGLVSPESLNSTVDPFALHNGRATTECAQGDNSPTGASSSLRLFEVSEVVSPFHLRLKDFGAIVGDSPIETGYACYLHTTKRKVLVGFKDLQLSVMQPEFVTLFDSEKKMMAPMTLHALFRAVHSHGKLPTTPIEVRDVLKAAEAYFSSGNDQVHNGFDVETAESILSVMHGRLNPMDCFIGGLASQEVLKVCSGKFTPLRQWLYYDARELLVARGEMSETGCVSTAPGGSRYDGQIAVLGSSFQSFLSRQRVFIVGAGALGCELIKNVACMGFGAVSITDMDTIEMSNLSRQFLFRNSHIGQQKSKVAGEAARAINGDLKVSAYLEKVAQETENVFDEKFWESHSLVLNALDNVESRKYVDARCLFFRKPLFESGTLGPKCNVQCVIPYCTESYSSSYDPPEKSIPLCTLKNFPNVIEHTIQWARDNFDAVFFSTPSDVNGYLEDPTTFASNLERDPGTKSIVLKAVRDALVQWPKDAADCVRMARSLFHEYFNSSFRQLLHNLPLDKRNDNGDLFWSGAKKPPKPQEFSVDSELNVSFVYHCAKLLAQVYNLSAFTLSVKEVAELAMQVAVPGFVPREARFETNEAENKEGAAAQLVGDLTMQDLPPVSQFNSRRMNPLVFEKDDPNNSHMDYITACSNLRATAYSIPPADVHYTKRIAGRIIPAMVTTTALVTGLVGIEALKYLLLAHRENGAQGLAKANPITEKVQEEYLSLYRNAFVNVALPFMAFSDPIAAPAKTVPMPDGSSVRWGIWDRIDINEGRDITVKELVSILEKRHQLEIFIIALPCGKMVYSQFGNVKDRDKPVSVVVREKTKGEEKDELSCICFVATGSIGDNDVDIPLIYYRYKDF

[3] = biological target: T3, human UBA1 (hUBA1), ubiquitin E1 activating enzyme (Homo sapiens, UniProt P22314)
T3 construct: N-terminal His-tagged hUBA1
T3 sequence (P22314 2-1058): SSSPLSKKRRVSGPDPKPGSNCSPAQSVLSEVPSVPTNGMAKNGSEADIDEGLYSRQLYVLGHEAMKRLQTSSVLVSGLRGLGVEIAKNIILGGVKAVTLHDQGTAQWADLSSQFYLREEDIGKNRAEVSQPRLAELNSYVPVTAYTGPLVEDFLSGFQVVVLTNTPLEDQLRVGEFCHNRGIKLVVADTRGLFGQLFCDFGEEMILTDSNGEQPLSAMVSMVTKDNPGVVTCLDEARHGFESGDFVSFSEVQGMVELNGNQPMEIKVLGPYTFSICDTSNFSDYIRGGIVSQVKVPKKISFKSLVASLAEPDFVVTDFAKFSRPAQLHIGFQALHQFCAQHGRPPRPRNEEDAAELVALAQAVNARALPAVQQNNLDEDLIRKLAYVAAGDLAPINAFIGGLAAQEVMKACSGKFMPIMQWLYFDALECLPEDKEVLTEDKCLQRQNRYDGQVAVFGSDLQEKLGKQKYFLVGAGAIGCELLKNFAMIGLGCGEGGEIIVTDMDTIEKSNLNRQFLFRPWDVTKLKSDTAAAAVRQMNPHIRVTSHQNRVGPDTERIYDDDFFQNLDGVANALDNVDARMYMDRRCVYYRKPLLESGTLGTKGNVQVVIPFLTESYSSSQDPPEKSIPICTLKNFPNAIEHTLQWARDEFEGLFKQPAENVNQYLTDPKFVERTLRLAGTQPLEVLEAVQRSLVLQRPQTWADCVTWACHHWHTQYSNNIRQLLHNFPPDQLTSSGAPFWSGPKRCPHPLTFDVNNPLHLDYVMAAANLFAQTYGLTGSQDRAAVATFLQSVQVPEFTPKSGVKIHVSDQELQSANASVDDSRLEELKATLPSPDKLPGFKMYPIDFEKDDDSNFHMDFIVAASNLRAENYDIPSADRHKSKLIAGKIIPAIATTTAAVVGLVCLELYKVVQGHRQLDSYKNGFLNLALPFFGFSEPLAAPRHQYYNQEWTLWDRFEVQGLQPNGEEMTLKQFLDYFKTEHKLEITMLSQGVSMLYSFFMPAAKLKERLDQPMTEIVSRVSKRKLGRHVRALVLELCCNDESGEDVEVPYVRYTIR

TbUBA1a [4] = biological target: T4, TbUBA1a (Trypanosoma brucei, UniProt Q57XC5, E559D/Q534P/S560A)
T4 construct: gene Tb08.26A17.680; GST fusion cleaved with HRV 3C; with ubiquitin
T4 sequence (Q57XC5 whole entry E559D/Q534P/S560A, the tested form may be a part): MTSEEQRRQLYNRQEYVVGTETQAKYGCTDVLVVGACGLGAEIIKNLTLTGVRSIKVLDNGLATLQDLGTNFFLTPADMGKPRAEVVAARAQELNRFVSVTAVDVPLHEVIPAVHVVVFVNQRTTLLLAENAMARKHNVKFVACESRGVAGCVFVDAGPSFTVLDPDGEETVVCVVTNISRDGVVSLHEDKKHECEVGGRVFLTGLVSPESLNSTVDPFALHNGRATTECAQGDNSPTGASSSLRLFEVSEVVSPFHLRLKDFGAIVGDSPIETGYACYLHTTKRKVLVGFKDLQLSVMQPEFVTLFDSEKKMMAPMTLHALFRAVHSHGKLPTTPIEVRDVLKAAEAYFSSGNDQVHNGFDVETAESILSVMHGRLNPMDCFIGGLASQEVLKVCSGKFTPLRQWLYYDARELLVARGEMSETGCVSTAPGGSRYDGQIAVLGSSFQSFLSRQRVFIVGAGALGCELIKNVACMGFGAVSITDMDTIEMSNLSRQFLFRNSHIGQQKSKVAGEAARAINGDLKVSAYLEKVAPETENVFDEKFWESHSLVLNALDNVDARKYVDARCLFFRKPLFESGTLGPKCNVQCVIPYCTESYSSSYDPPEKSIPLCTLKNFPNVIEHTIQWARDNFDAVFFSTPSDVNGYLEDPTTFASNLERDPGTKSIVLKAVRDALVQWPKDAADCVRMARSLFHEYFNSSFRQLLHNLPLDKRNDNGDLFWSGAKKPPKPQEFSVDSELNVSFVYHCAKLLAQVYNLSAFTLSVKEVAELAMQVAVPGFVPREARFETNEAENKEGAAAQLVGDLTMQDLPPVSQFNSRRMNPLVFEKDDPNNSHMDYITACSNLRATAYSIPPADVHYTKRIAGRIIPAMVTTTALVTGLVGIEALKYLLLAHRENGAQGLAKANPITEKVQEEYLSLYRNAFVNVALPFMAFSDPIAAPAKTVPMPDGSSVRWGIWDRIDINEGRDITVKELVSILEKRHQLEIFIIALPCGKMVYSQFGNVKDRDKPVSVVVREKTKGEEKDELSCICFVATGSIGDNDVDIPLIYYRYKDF

TbUBA1b [5] = biological target: T5, TbUBA1b (Trypanosoma brucei, UniProt Q38DE8, E656D/T657A)
T5 construct: gene Tb09.211.3610; GST fusion cleaved with thrombin; with ubiquitin

TbUBA1b [6] = biological target: T6, TbUBA1b (Trypanosoma brucei, UniProt Q38DE8)
T6 construct: gene Tb09.211.3610; GST fusion cleaved with thrombin; with ubiquitin

Compound	E1-E2 transthioesterification assay (UbcH5a, Coomassie gel), recombinant purifie (TbUBA1b [1])	E1-E2 transthioesterification assay (UbcH5a, Coomassie gel), recombinant purifie (TbUBA1a [2])	E1-E2 transthioesterification assay (UbcH5a, Coomassie gel), recombinant purifie [3]	IC50 (TbUBA1a [4]) [µM]	E1-E2 transthioesterification assay (UbcH5a, Coomassie gel), recombinant purifie (TbUBA1b [5])	IC50 (TbUBA1b [6]) [µM]
CCOC(=O)c1ccc(N2NC(=O)C(=Cc3ccc([N+](=O)[O-])o3)C2=O)cc1 [PYR-41]	the TbUBA1s were slightly (~two-fold) more sensitive to PYR-41 than hUBA1	the TbUBA1s were slightly (~two-fold) more sensitive to PYR-41 than hUBA1	we observed very little difference between inhibition of human and the T. brucei UBA1s (Fig. 3C)			
NS(=O)(=O)OC[C@H]1C[C@@H](Nc2ccnc3cc(-c4cccc(SC(F)(F)F)c4)nn23)[C@H](O)[C@@H]1O [TAK-243]				12	The increase in inhibition of the double mutant E656D, T657A was almost as large as that of the triple mutant	159
